SMILES strings stand for the structures. Some results are limits rather than exact numbers.

Results on 3 molecules are retold here after US6388089B1, “Brassinosteroid biosynthesis inhibitors” (Riken, priority 1998, dated 2002).

Experiment [1] concerns Arabidopsis (wild-type, Colombia). Nature of the experiment: Arabidopsis germination assay. The class given is in vivo. The procedure: Arabidopsis mutants such as det2 (de-etiolation) and cpd (constitutive photomorphogenesis and dwarfism) show strong dwarfism manifested as curled leaves in deep green. Although this phenotype disappears when brassinolide is administered externally, other plant hormones such as IAA and gibberellin are ineffective. Based on these findings, the compound of the present invention (Compound 1 obtained in Example 1) was used in Arabidopsis (wild-type, Colombia) germination assay. Screening was performed under a light condition with criteria whether or not the compound generates abnormality 1) which is morphologically similar to mutants in the brassinosteroid biosynthesis and 2) which disappears when brassinolide is administered. It was also examined whether or not the morphological change induced by the test compound was restored to the morphology of wild-type by addition of braassinolide under a dark condition.
(§1) The Arabidopsis germination assay was performed as follows. Seeds of wild-type and det were treated at a low temperature (2° C.) for 2 days, and the surfaces were sterilized with 1% NaOCl solution for 2 minutes and washed seven times with sterilized distilled water. The seeds were sown on 1% agar solid medium containing 0.5×Murashige and Skoog (1962) salt and 1.5% (w/v) sucrose in a plastic plate in the presence or absence of the test compound. The wild-type plant and det2 plant were grown in a growth chamber for 16 hours under a light condition (240 mE/m2s) and for 8 hours under a dark condition (25° C.). For the screening experiment, the plate was sealed with Parafilm (American National Can Co., Ltd., Chicago, Ill., USA). For the restoration experiment that required a longer experimental period, the seeds were sown on 1% agar solid medium containing 0.5×Murashige and Skoog (1962) salt and 1.5% (w/v) sucrose in Agripot (Kirin Brewery Co., Ltd.). The plants were grown in a growth chamber for 16 hours under a light condition (240 mE/m2s) and for 8 hours under a dark condition (28° C.).

Experiment [2] concerns rice (Oryza sativa cv. Koshihikari). Kind of experiment: rice growth bioassay (rice elongation test). The class given is in vivo. As to conditions: for growth of the rice plant (length of shoots): in vivo. The procedure:
Further, rice growth bioassay was performed as follows. Seeds of rice (Oryza sativa cv. Koshihikari) were immersed in tap water for 2 hours, and then 10 seeds were immersed in 2 ml of 10 mM sodium acetate buffer (pH 5.4) containing 10 mM CaCl2 filled in a sterilized 15-ml test tube in the presence or absence of a test compound. The plants were grown in a growth chamber for 16 hours under a light condition (240 mE/m2s) and for 8 hours under a dark condition (25° C.). The plants were collected and the length of shoots was measured.

The subject of a further experiment is Arabidopsis. Nature of the experiment: Arabidopsis assay with addition of brassinolide precursors. The format is in vivo. The method, then:
as §1
In order to confirm the action of RMB-61 also in the Arabidopsis assay, the seeds were grown with addition of the aforementioned brassinolide precursors, and recovery of the growth retardation caused by the RMB-61 treatment was observed. […] If RMB-61 is a specific inhibitor against the oxidation of cathasterone, it is expected that the morphological traits of the treated plants have similarities to the phenotypes of the mutants such as cpd (Szekeres et al., Cell, 85, pp.171-182, 1996). It is further expected that the action of RMB-61 will disappear when typhasterol, castasterone or brassinolide is administered, and in addition, the cpd phenotypes caused by brassinosteroids will disappear.

Experiment [3] concerns dwarfed rice plant (Oryza sativa cv. Tan-ginbozu). Kind of experiment: rice leaf lamina inclination bioassay, whole plant method. The format is in vivo. The method, then:
In the figure, “Angle” indicates an inclination angle; and the results are indicated with “Cont” for control (no treatment); “CT” for cathasterone (100 ng); “TE” for teasterone (100 ng); and “BL” for brassinolide (0.1 ng) wherein each dose per plant is shown. Generally, the biological activity of brassinosteroids is often evaluated by the in vitro rice leaf lamina inclination bioassay (explantation method: Wada et al., Plant Cell Physiol., 22, pp.323-325, 1981; Takatsuto, J. Chromat. A., 658, pp.3-15, 1994) which is highly sensitive and reliable. However, this conventional method is not suitable for analyzing the mechanism of action of brassinosteroid biosynthesis inhibitors. Recently, Fujioka et al. reported a method (whole plant method) in which the rice leaf lamina inclination bioassay is improved as an […] system. This method reflects the actual biosynthesis process of brassinosteroids by administration of various precursors of brassinolide. The inhibitory action of the compound of the present invention against the brassinolide biosynthesis was evaluated by the explantation method and the whole plant method. The rice leaf lamina inclination bioassay was performed essentially according to the procedure reported by Fujioka et al. as mentioned above by using a dwarfed rice plant (Oryza sativa cv. Tan-ginbozu). Seeds were immersed in water for 2 days at 28° C., and germinated seeds were subjected to selection of those having a uniform coleoptile length (about 1 to 2 mm). Five germinated seeds were planted on 30 ml of 1% agar medium contained in a glass jar (inner diameter: 26 mm×60 mm), and incubated under the aforementioned conditions for 3 days. Each test compound for the bioassay was dissolved in ethanol and placed on a lamina in an amount of […] by using a microsyringe. After the plants were incubated under the same growth conditions for 2 days, the external angle between the leaf lamina and its sheath was measured by using an annular protractor. Thirty plants in total (6 jars) were used for each treatment.

The test system is the same in experiment [4]. Nature of the experiment: rice leaf lamina inclination bioassay, explantation method. The format is in vivo. As to conditions: RMB-61 1 μg/plant; FIG. 1.
The subject of a further experiment is vessel elements. As to conditions: cited from earlier work.
The next experiment has as its system endogenous castasterone. As to conditions: side effect; cited from earlier work.

In the case of `CC(O)(c1ccccc1)C(Cc1ccc(Cl)cc1)n1cncn1` (centres unmarked) [Compound 1, 4-(4-chlorophenyl)-2-phenyl-3-(1,2,4-triazoyl)butan-2-ol], the induction of dwarfism entry in experiment [1] (at 10^−6 M, among the test compounds) is listed as “most potent induction of dwarfism”. Besides, the “concentration at which shapes of the plants significantly resemble det2 mutant” value in experiment [1] (dose-effect test) is ≥ 10^−5 M. Also, the “dwarfism / morphological change on simultaneous administration of brassinolide” value in experiment [1] (with brassinolide) is “negated”. In experiment [2], the “growth of the rice plant (length of shoots)” value (“growth of the rice plant” for short) is “no effect”. The “effect on the gibberellin treatment” value in experiment [2] (with gibberellin) was “completely failed to effect the gibberellin treatment”. Besides, the “greening effect on administration of brassinosteroids” value with Arabidopsis (brassinosteroids except for cathasterone) was “eliminated”. Further, the greening of plants result in the experiment on Arabidopsis (under weak light) was “promoted greening”. The “growth retardation in the presence of cathasterone” value in the experiment on Arabidopsis (with cathasterone) is “maintained”. Besides, the “action of RMB-61 (growth retardation) in presence of brassinosteroids” value in the experiment on Arabidopsis (with teasterone, 3-deoxoteasterone, typhasterol, castasterone or brassinolide) is recorded as “strongly inhibited the action of RMB-61”. For the same molecule, in experiment [3] (RMB-61 5 μg/plant, FIG. 2), the “effect on the inclination action by teasterone, typhasterol and castasterone” value was “failed to offset”. Further, the “effect on the action of cathasterone (inclination angle)” value in experiment [3] (RMB-61 5 μg/plant, cathasterone 100 ng, FIG. 2) is “inhibited the action of cathasterone”. Moreover, the “response of the rice plant to brassinosteroid after adding teasterone or brassinolide” value in experiment [3] (rice plant in which the effect of cathasterone was negated by RMB-61) is listed as “restored”. For the same molecule, in experiment [4], the “inhibition of the action of brassinolide (inclination angle)” value is recorded as “absolutely no inhibition”.
As for `CC(C)(C)C(O)/C(=C\c1ccc(Cl)cc1)n1cncn1` (centres unmarked) [Uniconazol], the “growth of the rice plant” value in experiment [2] is reported as “strong growth retardation action”. Moreover, the “differentiation of vessel elements induced by brassinolide” value with vessel elements was “inhibits differentiation of vessel elements”. Further, the “amount of endogenous castasterone” value in the experiment on endogenous castasterone is listed as “slight reduction”.
`CC(C)(C)[C@@H](O)[C@@H](Cc1ccc(Cl)cc1)n1cncn1` [paclobutrazol, reference compound]: in experiment [2], the “growth of the rice plant” value was “elongation retardation action”.
